# Active and inactive are the calls of the source.
# Assays:
# [1] = P. falciparum late gametocyte killing, dose response, luminescence (AID 1117278); assay type: functional, cell-based;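 further: gametocytes exposed to compound for 24 hours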
# [2] = Jurkat T cell cytotoxicity, dose response, cytotoxicity control for P. falciparum gametocyte viability project, luminescence (AID 1117277); assay type: functional, cell-based;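 further: potency reflects loss of cellular ATP meaning fewer viable cells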
# [3] = Counterscreen for […] of the human trace amine associated receptor 1 (TAAR1): Fluorescence-based cell-based high throughput dose response assay to identify nonselective Ga16 agonists.; assay type: functional
# [4] = molecular target: T1, Trace amine-associated receptor 1 (Homo sapiens, UniProt Q96RJ0); assay: Fluorescence-based cell-based high throughput dose response assay to identify antagonists of the human trace amine associated receptor 1 (TAAR1).; assay type: functional
# T1 sequence (Q96RJ0 whole entry): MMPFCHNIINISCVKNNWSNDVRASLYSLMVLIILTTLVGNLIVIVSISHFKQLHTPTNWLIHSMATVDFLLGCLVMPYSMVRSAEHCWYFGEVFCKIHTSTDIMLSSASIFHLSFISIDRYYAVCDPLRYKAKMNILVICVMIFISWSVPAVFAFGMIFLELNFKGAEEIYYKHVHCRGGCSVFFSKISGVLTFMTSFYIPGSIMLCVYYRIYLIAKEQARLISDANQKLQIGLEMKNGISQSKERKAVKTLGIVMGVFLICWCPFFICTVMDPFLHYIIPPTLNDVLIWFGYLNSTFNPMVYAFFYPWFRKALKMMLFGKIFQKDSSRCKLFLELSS
# [5] = molecular target: T1, Trace amine-associated receptor 1; assay: Counterscreen for antagonists of the human trace amine associated receptor 1 (hTAAR1): Fluorescence-based cell-based high throughput dose response assay to identify TAAR1 Agonists.; assay type: functional
# [6] = Counterscreen for antagonists of the human trace amine associated receptor 1 (hTAAR1): Fluorescence-based cell-based high throughput dose response assay to identify nonselective Ga16 antagonists.; assay type: functional
# [7] = Luminescence Cell-Based Dose Retest to Confirm Inhibitors of Cancer Stem Cells. [Related pubchem assays (depositor defined):AID2717, AID2721]; assay type: functional; details: Homo sapiens
# [8] = ADAM10 inhibitors, peptide cleavage, dose response, biochemical, QFRET (AID 743254);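 further: ADAM10 enzyme with the DM2 quenched FRET peptide as substrate; EDANS fluorescence gain as the protease cuts the substrate; inhibitor potency against ADAM10 proteolytic activity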
# [9] = molecular target: Disintegrin and metalloproteinase domain-containing protein 17 (Homo sapiens, UniProt P78536); assay: ADAM17 protease inhibitors, dose response, counter-screen for ADAM10 exosite inhibitor project, biochemical, quenched FRET substrate (AID 743253)
# Galanin receptor type 3 = molecular target: T2, Galanin receptor type 3 (Homo sapiens, UniProt O60755); assay: Fluorescence-based cell-based primary high throughput dose response assay to identify antagonists of the Galanin Receptor 3 (GalR3).; assay type: functional
# T2 sequence (O60755 whole entry): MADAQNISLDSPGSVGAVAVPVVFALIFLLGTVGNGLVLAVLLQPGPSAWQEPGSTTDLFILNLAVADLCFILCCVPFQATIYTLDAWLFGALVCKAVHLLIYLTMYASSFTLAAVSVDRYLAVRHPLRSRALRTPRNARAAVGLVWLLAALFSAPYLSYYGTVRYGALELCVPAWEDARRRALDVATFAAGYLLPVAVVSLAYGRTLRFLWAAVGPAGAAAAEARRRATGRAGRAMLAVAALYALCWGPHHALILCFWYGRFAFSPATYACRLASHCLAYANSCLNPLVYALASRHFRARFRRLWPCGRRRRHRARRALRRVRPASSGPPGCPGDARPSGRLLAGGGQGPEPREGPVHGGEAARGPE
# [10] = molecular target: COUP transcription factor 2 (Homo sapiens, UniProt P24468); assay: Luminescence-based cell-based high throughput dose response assay to identify inhibitors of COUP-TFII (NR2F2).; assay type: functional;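 further: HEK293 cells transiently cotransfected with COUP-TFII expression vector and reporter; luciferase reporter luminescence driven by COUP-TFII from the pX2-168 reporter plasmid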
# cells [11] = assay type: functional, cell-based; details: HEK-CNG
# fMet-Leu-Phe receptor = fMet-Leu-Phe receptor (Homo sapiens, UniProt P21462); assay: FPR ligands, dose response (AID 519); assay type: functional
# Prothrombin = Prothrombin (Homo sapiens, UniProt P00734); assay: Thrombin 1536 HTS Dose Response Confirmation. [Related pubchem assays: 1046 (Thrombin 1536 HTS; hits were confirmed in this assay)]; assay type: functional
# Protein Tat = Protein Tat (Human immunodeficiency virus type 1 group M subtype B (isolate HXB2)(HIV-1), UniProt P04608); assay type: functional;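 further: tat binding to TAR RNA read out by fluorescence polarization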
# cells [12] = assay: cells
# Major prion protein = Major prion protein (Homo sapiens, UniProt P04156); assay type: functional, cell-based
# [13] = cytotoxicity toward NIH3T3 fibroblasts, dose response, counter-screen, cell-based, ATP luminescence, mouse fibroblasts (AID 2010); assay type: functional;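 further: cells exposed to compound for about 90 hours before reading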
# [14] = C. albicans growth with fluconazole, confirmation, fluorescence, retest (AID 2467); assay type: functional, cell-based
# [15] = NIH-3T3 fibroblast cytotoxicity, dose response, cytotoxicity control, cell-based, fluorescence, Alamar Blue, secondary assay (AID 2327); assay type: functional;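 further: NIH-3T3 mouse fibroblasts cultured with fluconazole at 8 µg/mL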
# [16] = inhibitors of intracellular T. cruzi replication, confirmation, NIH3T3 host cells, beta-gal luminescence (AID 2044); assay type: functional, cell-based;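 further: intracellular parasites grown in NIH/3T3 mouse fibroblasts as host cells; luminescent beta-galactosidase reporter signal from transgenic T. cruzi replicating inside host cells; inhibitors lower the luminescence signal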
# [17] = molecular target: T3, Probable nicotinate-nucleotide adenylyltransferase (Staphylococcus aureus (strain N315), UniProt P65502); assay type: functional, Staphylococcus aureus subsp. aureus N315;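 on IC50 Mean: confirmatory dose-response retesting of NadD inhibitor hits first found in an ultra-high-throughput screen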
# [18] = molecular target: T4, Carboxy-terminal domain RNA polymerase II polypeptide A small phosphatase 1 (Homo sapiens, UniProt Q9GZU7); assay: inhibitors of CTDSP1, concentration-response testing, biochemical assay, absorbance-based, actives from ultra-high-throughput screening (AID 540297); assay type: functional
# T4 sequence (Q9GZU7 whole entry): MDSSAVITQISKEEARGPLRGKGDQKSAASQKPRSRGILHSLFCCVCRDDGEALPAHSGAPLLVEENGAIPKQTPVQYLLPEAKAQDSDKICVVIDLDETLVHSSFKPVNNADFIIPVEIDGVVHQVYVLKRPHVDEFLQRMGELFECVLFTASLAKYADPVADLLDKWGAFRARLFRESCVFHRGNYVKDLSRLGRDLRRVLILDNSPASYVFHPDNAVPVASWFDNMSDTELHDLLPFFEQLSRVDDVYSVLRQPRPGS
# [19] = molecular target: Induced myeloid leukemia cell differentiation protein Mcl-1 (Homo sapiens, UniProt Q07820); assay type: functional
# [20] = molecular target: T3, Probable nicotinate-nucleotide adenylyltransferase; assay type: functional, Staphylococcus aureus subsp. aureus N315; details: read-out: IC50_Mean
# [21] = Luminescence-based cell-based high throughput dose response assay to identify activators of the DAF-12 from the parasite S. stercoralis (ssDAF-12).; assay type: functional
# 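Wherever AC50 is given: cells exposed to compound for roughly 70 hours or longer before luminescence read.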
compound,measurement,setting,value
CC1CCCCN1C(=O)Cn1c(=O)oc2ccccc21 (centres undefined),IC50,[1],> 109 µM (inactive)
same,IC50,[2],> 83.3 µM (inactive)
CC(C)C[C@H](NC(=O)c1[nH]cnc1C(=O)NCC(=O)OCc1ccccc1)C(=O)OCc1ccccc1,EC50,[3],> 29.9 µM (inactive)
same,IC50,[4],4.32 µM (active)
same,EC50,[5],> 29.9 µM (inactive)
same,IC50,[6],> 29.9 µM (inactive)
COc1ccccc1Nc1ccc(NC(=O)c2cccc([N+](=O)[O-])c2C)cc1,AC50,[7],3.32 µM (active)
same,IC50,[8],15.4 µM (inactive)
same,IC50,[9],> 69.5 µM (inactive)
CC(C)c1ccc(CN2CCN(C(=O)CSc3nnnn3C3CC3)CC2)cc1,IC50,Galanin receptor type 3,1.34 µM (active)
same,IC50,[10],8.28 µM (active)
same,EC50,cells [11],> 29.9 µM (inactive)
Cc1cc(N2C(=O)C(O)=C(C(=O)c3ccco3)C2c2cccnc2)no1 (centres undefined),Ki,fMet-Leu-Phe receptor,> 66.7 µM (inactive)
CN1C(=O)/C(=C2\SC(=S)N(C(CCC(=O)O)C(=O)O)C2=O)c2ccccc21 (centres undefined),IC50,Prothrombin,> 50 µM (not active)
same,Ki,fMet-Leu-Phe receptor,> 66.7 µM (inactive)
Cc1cc(-c2csc(NC(=O)c3cc4ccccc4o3)n2)c(C)n1C,IC50,Protein Tat,> 100 µM (active)
O=C(COc1ccc2ccccc2c1Br)Nc1ccncc1,IC50,cells [12],> 138 µM (inactive)
same,IC50,Major prion protein,10.4 µM (inactive)
O=C(NNc1ccccc1)C(=O)NNS(=O)(=O)c1ccc(CCCl)cc1,EC50,[13],3.48 µM (active)
same,EC50,[14],> 38 µM (not active)
same,IC50,[8],23.4 µM (inactive)
same,EC50,[15],2.67 µM (inconclusive)
same,IC50,[9],27 µM (inactive)
same,EC50,[16],2 µM (active)
Cc1csc(NC(=O)c2cc(-c3ccco3)nc3ccccc23)n1,IC50,[17],9.45 µM (active)
same,IC50,[18],4.76 µM (active)
same,IC50,[19],4.03 µM (active)
same,IC50,[20],18.4 µM (active)
same,IC50,[21],> 67.5 µM (inactive)
